One data set has as its system Capan-1 cells. The experiment in a line: clonogenic survival assay, Capan-1. The data set is classed as cell-based. As for the experimental part:
(§1) Methods: Flow cytometry: EGFR density was measured on AsPC-1, PANC-1, MiaPACA-2, and Capan-1 cell lines. Cells were incubated with panitumumab for 60 min, then with Alexa Fluor 647 anti-human IgG immunoconjugates for 30 min at 4°C, then run on a flow cytometer. Clonogenic survival assays: Cells were treated with γ-radiation (0-8Gy) or ^177Lu-RIT (0-3MBq/72nM) then seeded in into 6-well plates and allowed to grow at 37°C, 5% CO2, for 14 days. Then colonies were fixed/stained and counted. Subcellular fractionation: Cells were treated with ^177Lu-RIT (1MBq/72nM) for 1, 3, 4, and 24 hours. Radioactivity associated with cell surface, cytoplasm, and nucleus was separated then measured in a γ-counter.

Another data set relates to AsPC-1 cells. Put plainly: clonogenic survival assay, AsPC-1. The data set is classed as cell-based. As for the experimental part:
as §1

A further data set deals with PANC-1 cells. The experiment in a line: clonogenic survival assay, PANC-1. The data set is classed as cell-based. As for the experimental part: as §1
A further data set has as its system MIAPaca-2 cells. The experiment in a line: clonogenic survival assay, MIAPaca-2. The data set is classed as cell-based. As for the experimental part:
as §1

For data set [1] the following is noted: 68Ga-labelled conjugates.
Experimental: (§3) Tz functionalization was performed by reaction with NHS-PEG5-Tz with FSC (resulting in the trimer FSC-(PEG5-Tz)3), MAFC (resulting in the dimer MAFC-(PEG5-Tz)2) and DAFC (resulting in the monomer DAFC-(PEG5-Tz), starting from its ferric complex with final iron removal by EDTA, HPLC purification and characterization by MS. ^68Ga-labelling was performed in acetate buffer (pH 4.5) at high s.a., resulting complexes were characterized by HPLC, protein binding, log P and stability was assessed. Rituximab was functionalized with NHS-TCO according to published procedures (Rtx-TCO). Binding of Tz-conjugates to TCO was assessed on Rtx-TCO immobilized 96well plates as well as after binding of Rtx-TCO vs Rtx to Raji cells expressing CD20 followed by incubation with 68Ga-Tz-conjugate. Biodistribution was studied in normal balb-c mice.
The conditions of data set [2]: 1h p.i., normal balb-c mice.
Experimental: as §3
The conditions of data set [3]: 68Ga-labelled conjugates. The source holds these as a separate data set.
Experimental: as §3
Data set [4] has as its system Raji cells expressing CD20. The experiment in a line: binding of 68Ga-Tz-conjugate after binding of Rtx-TCO to Raji cells. The data set is classed as cell-based.
The target of data set [5] is gastrin-releasing peptide receptor (GRPr) (human (endogenous in PC-3, T47D, MDA-MB-231)) (UniProt P30550).
Data set [6] in a line: plutonium decorporation in rats. The data set is classed as in vivo. The settings on record: delayed administration, of the levels in untreated control rats. As for the experimental part:
Methods: Unilamellar liposomes (DSPC/Cholesterol/DSPE 69:30:1) were used to encapsulate DTPA (25mM). For decorporation experiments, rats were first contaminated by intravenous administration of the soluble citrate form of ^238Pu (4 to 10.3 kBq), before injection of DTPA, marketed free form or encapsulated in liposomes (2.25 at 6.74 μmol/kg). Treatment schedules started at one hour (prompt treatment) or at seven days (delayed treatment) after contamination and were given as a single injection or repeated injections. A prophylactic single treatment was also tested given at three days before contamination. Organs of interest (liver, bone and spleen mainly) and excreta were collected at different times for measurement of Pu alpha activity.

For the next data set, the target named is T1, GABAB receptors (Mus musculus, UniProt Q9WV18).
T1 construct: from tissue; host or cells: brain of CD-1 male mice (in vivo / ex vivo)
Format: in vivo, mice. As for the experimental part: Methods: New GABAB agonists, fluoropyridylmethoxy analogues of baclofen, were synthesized. The in vitro potency of these new compounds was determined commercially. […] The regional brain distribution of the radiolabeled [^18F]1 was studied in CD-1 male mice.

The target of another data set is T2, mGluR1 (Mus musculus, UniProt P97772).
T2 construct: PET probe for imaging the kinetics of mGluR1 in mouse brain; from tissue; host or cells: brain of living WT Q175DN mice
Put plainly: [11C]ITDM microPET in mouse brain. The data set is classed as in vivo. As for the experimental part: Methods: We validated [^11C]ITDM as a PET probe for imaging the kinetics of mGluR1 in mouse brain. [^11C]ITDM was prepared by modification of a previously described method^1 in a module (Comecer Netherlands) adapted for automated production. In a cooled solution containing the arylstannane precursor (1.9mg), K2CO3 (2.1mg), CuCl2 (1.5mg), Pd2(dba)3 (1.3mg) and P(o-tol)3 (1.7mg) in DMF purged with N2, [^11C]MeI was bubbled, followed by reaction at 65°C for 5min. The mixture was purified by reverse phase semi-preparative HPLC (tR=8.5min), using MeCN:H2O:Et3N (6:4:0.01, V/V/V) as mobile phase (2.7mL/min) followed by sterile formulation into ethanolic saline containing 0.5% ascorbic acid, using a C18 Sep-Pak cartridge. For in vivo evaluation, WT Q175DN mice (n = 9; 11 months old) were intravenously (i.v.) injected with [^11C]ITDM (5.69±2.4MBq; injected mass=0.87±0.33μg/kg) and dynamically scanned for 90min (Siemens Inveon μPET/CT). To validate target engagement, blocking and displacement studies with mGluR1 antagonist YM-202074 (20mg/kg; i.v.; 2min before and 30min after tracer injection, respectively) were performed. Total volume of distribution (VT) (from 2TCM) was calculated noninvasively using an image-derived input function (IDIF) in several brain regions.

For data set [7] the following is noted: 37°C, 24h incubation. As for the experimental part: Methods: 177Lu-DOTATATE (Lutathera®) was diluted to 1/5th in saline, 5% Glucose, Bicarbonate 8.4% solution, Ringer-Lactate, octreotide solution, octreotide LAR or incubated at 37°C in plasma or plasma enriched with 10% de octreotide. Radiochemical purity (RPC) was determined by ITLC-SG in 0.1mol/L sodium citrate pH=3. […] RPC was also determined using C18 Sep-Pack-Plus cartridge (Waters, USA). The free radionuclide was eluted with 5mL of 0.1mol/L acetate buffer pH=3 and the labelled peptide with 5mL of methanol, and hydroxylated Lu-177 remained inside the cartridge. Mixtures were then analyzed immediately, 30min and 24h after dilution. […] Binary comparisons to the undiluted product were made by a Mann-and-Whitney U test and stability over time checked by a 1-way ANOVA (p < 5%).

For data set [8] the following is noted: after 10 min, BALB/c mice in vivo. The method, then:
(§2) Methods: The new MG analogue DOTA-MGS5 was designed based on a combination of the substitutions applied in peptide derivatives previously developed by our group (1). The in vitro and in vivo characterisation after radiolabelling with In-111 and Lu-177 included stability analyses of the radioligands incubated in rat tissue homogenates and after injection into BALB/c mice. Receptor interaction in terms of receptor affinity and cell uptake was analysed using A431 human epidermoid carcinoma cells transfected with human CCK2R (A431-CCK2R) and mock-transfected cells (A431-mock). The targeting potential was evaluated by small animal dual modality single photon emission computed tomography (NanoSPECT/CT) as well as ex vivo biodistribution studies in tumour bearing BALB/c nude mice up to 4 h after injection.

A further data set can be described thus: in vivo. As to conditions: BALB/c nude, mouse, total radioactivity. As for the experimental part: as §2
[9] abbreviates: plasma enriched with octreotide.
Where [10] appears, read: 2TCM, image-derived input function, WT Q175DN mice n = 9.

Like-named read-outs stand apart in the source and are kept apart here.

gastrin-releasing peptide receptor (GRPr) (human (endogenous in PC-3, T47D, MDA-MB-231)), sequence (P30550 whole entry, stated change not applied): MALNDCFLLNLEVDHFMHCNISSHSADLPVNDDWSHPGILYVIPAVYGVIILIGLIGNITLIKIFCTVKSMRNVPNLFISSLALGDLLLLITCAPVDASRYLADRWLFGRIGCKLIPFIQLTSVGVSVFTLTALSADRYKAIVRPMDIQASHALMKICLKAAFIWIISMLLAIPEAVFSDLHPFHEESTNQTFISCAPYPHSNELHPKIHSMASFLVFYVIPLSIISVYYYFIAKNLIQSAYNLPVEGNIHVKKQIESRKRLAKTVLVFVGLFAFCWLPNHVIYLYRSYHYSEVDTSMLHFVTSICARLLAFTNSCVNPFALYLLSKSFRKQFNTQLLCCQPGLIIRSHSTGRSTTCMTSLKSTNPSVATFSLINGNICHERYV
T2 sequence (P97772 21-1199): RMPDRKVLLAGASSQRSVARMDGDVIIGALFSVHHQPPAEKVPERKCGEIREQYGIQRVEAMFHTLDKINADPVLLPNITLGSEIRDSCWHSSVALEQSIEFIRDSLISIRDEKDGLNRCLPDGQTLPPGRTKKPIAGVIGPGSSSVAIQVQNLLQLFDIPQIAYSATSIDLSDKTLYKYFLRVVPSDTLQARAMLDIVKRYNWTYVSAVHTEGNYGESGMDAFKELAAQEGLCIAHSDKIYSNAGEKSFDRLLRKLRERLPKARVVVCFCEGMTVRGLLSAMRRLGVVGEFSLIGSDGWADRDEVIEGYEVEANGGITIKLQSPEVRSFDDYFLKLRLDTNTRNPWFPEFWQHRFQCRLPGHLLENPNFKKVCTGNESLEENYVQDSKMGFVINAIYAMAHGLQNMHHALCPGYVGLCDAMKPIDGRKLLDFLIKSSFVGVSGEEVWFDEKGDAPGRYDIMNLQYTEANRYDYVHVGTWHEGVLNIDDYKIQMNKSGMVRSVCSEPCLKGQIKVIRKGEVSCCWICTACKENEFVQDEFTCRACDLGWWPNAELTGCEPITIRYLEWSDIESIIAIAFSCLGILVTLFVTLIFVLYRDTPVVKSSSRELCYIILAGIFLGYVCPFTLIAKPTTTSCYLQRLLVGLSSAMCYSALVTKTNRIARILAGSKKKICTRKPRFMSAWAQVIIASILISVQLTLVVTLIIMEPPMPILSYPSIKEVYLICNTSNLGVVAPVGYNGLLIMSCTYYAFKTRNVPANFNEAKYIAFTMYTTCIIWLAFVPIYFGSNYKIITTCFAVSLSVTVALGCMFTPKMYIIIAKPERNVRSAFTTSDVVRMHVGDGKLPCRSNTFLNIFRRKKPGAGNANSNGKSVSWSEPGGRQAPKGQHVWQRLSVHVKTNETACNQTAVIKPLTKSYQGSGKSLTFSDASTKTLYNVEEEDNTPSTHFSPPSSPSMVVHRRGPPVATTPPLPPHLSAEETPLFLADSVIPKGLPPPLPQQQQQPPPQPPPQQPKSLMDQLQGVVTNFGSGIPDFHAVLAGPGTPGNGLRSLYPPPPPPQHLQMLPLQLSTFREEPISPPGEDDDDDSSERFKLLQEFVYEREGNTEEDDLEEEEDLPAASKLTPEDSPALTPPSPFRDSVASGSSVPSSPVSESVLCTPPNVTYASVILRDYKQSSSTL
T1 sequence (Q9WV18 20-960): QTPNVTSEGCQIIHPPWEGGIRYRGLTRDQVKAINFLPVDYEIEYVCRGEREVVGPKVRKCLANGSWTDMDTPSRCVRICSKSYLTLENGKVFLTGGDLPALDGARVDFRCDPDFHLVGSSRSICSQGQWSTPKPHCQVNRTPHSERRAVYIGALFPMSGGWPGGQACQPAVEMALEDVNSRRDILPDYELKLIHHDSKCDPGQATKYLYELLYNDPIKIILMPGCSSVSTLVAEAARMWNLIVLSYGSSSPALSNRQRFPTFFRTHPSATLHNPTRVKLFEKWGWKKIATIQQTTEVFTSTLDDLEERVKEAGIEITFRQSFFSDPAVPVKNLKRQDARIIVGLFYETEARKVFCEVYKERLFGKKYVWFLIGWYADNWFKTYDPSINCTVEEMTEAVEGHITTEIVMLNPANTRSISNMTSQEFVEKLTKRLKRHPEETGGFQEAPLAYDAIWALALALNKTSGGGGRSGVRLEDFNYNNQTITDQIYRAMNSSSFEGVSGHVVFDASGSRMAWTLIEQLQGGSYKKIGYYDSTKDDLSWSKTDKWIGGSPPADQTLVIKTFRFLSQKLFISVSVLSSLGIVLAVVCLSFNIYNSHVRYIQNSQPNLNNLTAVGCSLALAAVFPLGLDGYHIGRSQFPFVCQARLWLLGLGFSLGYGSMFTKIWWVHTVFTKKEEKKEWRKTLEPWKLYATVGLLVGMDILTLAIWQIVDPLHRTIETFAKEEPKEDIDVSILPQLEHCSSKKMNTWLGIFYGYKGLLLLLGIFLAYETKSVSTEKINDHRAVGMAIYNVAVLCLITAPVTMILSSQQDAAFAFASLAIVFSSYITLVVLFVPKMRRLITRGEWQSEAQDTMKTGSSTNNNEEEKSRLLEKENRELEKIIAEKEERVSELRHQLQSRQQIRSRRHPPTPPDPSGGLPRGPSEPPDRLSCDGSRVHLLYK
T1 sequence (Q80T41 41-940 partner): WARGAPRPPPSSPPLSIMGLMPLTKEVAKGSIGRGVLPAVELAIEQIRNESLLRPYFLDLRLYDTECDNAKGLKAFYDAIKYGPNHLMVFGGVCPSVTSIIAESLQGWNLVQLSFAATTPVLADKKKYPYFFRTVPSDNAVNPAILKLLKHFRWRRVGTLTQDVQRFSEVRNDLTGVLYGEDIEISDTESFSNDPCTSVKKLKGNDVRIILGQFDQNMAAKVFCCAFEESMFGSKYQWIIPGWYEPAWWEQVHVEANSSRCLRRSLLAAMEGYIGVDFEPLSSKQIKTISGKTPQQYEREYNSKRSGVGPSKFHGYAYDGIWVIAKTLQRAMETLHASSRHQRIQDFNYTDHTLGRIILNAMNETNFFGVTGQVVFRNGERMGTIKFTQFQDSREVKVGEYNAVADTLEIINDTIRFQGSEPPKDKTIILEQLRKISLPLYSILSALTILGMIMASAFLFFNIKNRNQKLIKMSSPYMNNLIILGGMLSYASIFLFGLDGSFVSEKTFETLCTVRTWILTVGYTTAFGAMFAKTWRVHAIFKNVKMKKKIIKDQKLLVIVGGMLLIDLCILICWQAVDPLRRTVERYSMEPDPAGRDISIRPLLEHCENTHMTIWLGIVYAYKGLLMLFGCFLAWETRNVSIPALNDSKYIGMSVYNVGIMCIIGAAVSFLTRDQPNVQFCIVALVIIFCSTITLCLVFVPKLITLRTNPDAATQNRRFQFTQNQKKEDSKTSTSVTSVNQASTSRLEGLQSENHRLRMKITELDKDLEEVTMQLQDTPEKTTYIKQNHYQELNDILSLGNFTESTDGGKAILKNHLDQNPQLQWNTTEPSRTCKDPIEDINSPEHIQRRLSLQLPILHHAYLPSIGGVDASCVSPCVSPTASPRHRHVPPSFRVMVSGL

On to “^177Lu-RIT: panitumumab modified with a NOTA chelator and radiolabeled with 177Lu”, for which the “D10 (clonogenic survival reduced to 10%)” value is 1 MBq in the data set on Capan-1 cells (Capan-1), 3.1 MBq with AsPC-1 cells (AsPc-1), 1.1 MBq with PANC-1 cells (PANC-1) and 6.0 MBq in the data set with MIAPaca-2 cells (MIAPaca-2). Further, the RBE in the data set with Capan-1 cells (Capan-1, compared to γ-radiation) is 0.3; in the data set on AsPC-1 cells (AsPc-1, compared to γ-radiation), 0.2; with PANC-1 cells (PANC-1, compared to γ-radiation) it was 1.0; in the data set on MIAPaca-2 cells (MIAPaca-2, compared to γ-radiation), 0.2. For the same molecule, the “D10 after 177Lu-RIT” value is 8.2 Gy in the data set on Capan-1 cells (Capan-1, microdosimetry); 16.9 Gy in the data set with AsPC-1 cells (AsPc-1, microdosimetry); 5.7 Gy with PANC-1 cells (PANC-1, microdosimetry); 23.3 Gy in the data set on MIAPaca-2 cells (MIAPaca-2, microdosimetry).
Regarding `CC(=O)NC1CCCN(O)C(=O)/C=C(/C)CCOC(=O)C(NC(=O)CCOCCOCCOCCOCCOCCC(=O)NCc2ccc(-c3nncnn3)cc2)CCCN(O)C(=O)/C=C(/C)CCOC(=O)C(NC(C)=O)CCCN(O)C(=O)/C=C(/C)CCOC1=O` (centres unmarked) (68Ga complex, metal not drawn) [DAFC-(PEG5Tz)], in data set [1], the protein binding entry was “exceeded 50%”. For the same molecule, the blood levels in [2] came out at 1 %ID/g. In addition, the log p entry in [3] is reported as “below -1”. The “binding after binding of Rtx-TCO to CD20 expressing cells” value (“binding after binding of Rtx-TCO” below) in data set [4] is given as 4.01 ± 0.24%.
Regarding “GRPr antagonist H2N-4-amino-1-carboxymethyl piperidine-[(R)-Phe^6, Sta^13]BN(6-14) linked to the chelator HBED-CC, labelled with 68Ga (peptide)”, in data set [5], the cell bound, % given radioactivity (MDA-MB-231+ cells, 1 h) (% given radioactivity) turned out to be 3; the cell bound, % given radioactivity (PC-3+ cells, 1 h) (% given radioactivity) turned out to be 30; the cell bound, % given radioactivity (T47D+ cells, 1 h) (% given radioactivity) came to 9.
With `O=C(O)CN(CCN(CC(=O)O)CC(=O)O)CCN(CC(=O)O)CC(=O)O` [free DTPA], in data set [6], the “decrease of hepatic Pu level” value turned out to be 19%, the “decrease of skeletal Pu level” value is recorded as 12% and the “decrease of splenic Pu level” value came to 24%.
At GABAB receptors (CD-1 male mice), `NC[C@H](CC(=O)O)c1ccc(Cl)c(OCc2ccnc(F)c2)c1` [[^18F]1, (R)-4-amino-3-(4-chloro-3-((2-fluoropyridin-4-yl)methoxy)phenyl) butanoic acid] returned a mouse brain uptake of 1 % ID/g tissue. Further, the “inhibition of accumulation in the mouse brain” value at GABAB receptors (pre-injection of a selective GABAB agonist) was determined as 35%.
As for `COCCN(C)Cc1ccc2c(c1)nc1sc(C(=O)N(C)C3CCCCC3)cn12` [YM-202074], on mGluR1 (20mg/kg i.v., 2min before and 30min after tracer injection, all investigated brain regions), the “blockade and displacement of [11C]ITDM” value was “significant blockade and displacement”.
Take `C/C1=C/C(=O)N(O)CCCC(NC(=O)CCOCCOCCOCCOCCOCCC(=O)NCc2ccc(-c3nncnn3)cc2)C(=O)OCC/C(C)=C\C(=O)N(O)CCCC(NC(=O)CCOCCOCCOCCOCCOCCC(=O)NCc2ccc(-c3nncnn3)cc2)C(=O)OCC/C(C)=C\C(=O)N(O)CCCC(NC(=O)CCOCCOCCOCCOCCOCCC(=O)NCc2ccc(-c3nncnn3)cc2)C(=O)OCC1` (centres unmarked) (68Ga complex, metal not drawn) [FSC-(PEG5Tz)3]: the protein binding entry in data set [1] is “exceeded 50%”. In data set [2], this molecule registered a blood levels of 3 %ID/g. In data set [3], the log p result is “below -1”. In data set [4], the “binding after binding of Rtx-TCO” value came out at 15.9 ± 0.88%.
Regarding `C[C@@H](O)[C@H](NC(=O)[C@@H]1CSSC[C@H](NC(=O)[C@@H](Cc2ccccc2)NC(=O)CN2CCN(CC(=O)O)CCN(CC(=O)O)CCN(CC(=O)O)CC2)C(=O)N[C@@H](Cc2ccc(O)cc2)C(=O)N[C@H](Cc2c[nH]c3ccccc23)C(=O)N[C@@H](CCCCN)C(=O)N[C@@H]([C@@H](C)O)C(=O)N1)C(=O)O` [177Lu-DOTATATE, metal not drawn], in [7] (setting [9]), the “hydroxylated Lutetium” value is given as 6.3%±1.8% and the unbound lutetium was 4.8%±0.8%. In data set [7] (plasma, mean±SD n = 3-4), the “hydroxylated Lutetium” value is 4.9%±1.3% and the unbound lutetium is recorded as 4.2%±0.6%.
For `CCCC[C@@H](C(=O)N[C@@H](CC(=O)O)C(=O)N[C@@H](Cc1cccc2ccccc12)C(N)=O)N(C)C(=O)[C@H](Cc1c[nH]c2ccccc12)NC(=O)CNC(=O)[C@H](Cc1ccc(O)cc1)NC(=O)[C@H](C)NC(=O)[C@@H](CCC(=O)O)NC(=O)CN1CCN(CC(=O)O)CCN(CC(=O)O)CCN(CC(=O)O)CC1` [^177Lu-DOTA-MGS5, metal not drawn], the “stability in blood, intact peptide” value in data set [8] is recorded as more than 80%. The tissue to tissue ratio at 4 h in “in vivo” (A431-CCK2R tumour / kidneys) was more than 6; in “in vivo” (A431-CCK2R tumour / stomach) it was more than 3.
Regarding `CC(=O)NC1CCCN(O)C(=O)/C=C(/C)CCOC(=O)C(NC(=O)CCOCCOCCOCCOCCOCCC(=O)NCc2ccc(-c3nncnn3)cc2)CCCN(O)C(=O)/C=C(/C)CCOC(=O)C(NC(=O)CCOCCOCCOCCOCCOCCC(=O)NCc2ccc(-c3nncnn3)cc2)CCCN(O)C(=O)/C=C(/C)CCOC1=O` (centres unmarked) (68Ga complex, metal not drawn) [MAFC-(PEG5Tz)2], the protein binding result in data set [1] is reported as “exceeded 50%”. In addition, the log p result in data set [3] is on record as “below -1”. Also, the “binding after binding of Rtx-TCO” value in [4] was 7.75 ± 0.56%.
Regarding `CC(C)Nc1cc(-c2csc(N(C)C(=O)c3ccc([11CH3])cc3)n2)ncn1` [[^11C]ITDM], on mGluR1 (setting [10]), the VT cerebellum worked out at 9.1±2.1 mL/cm^3 and the VT thalamus was determined as 8.2±2.1 mL/cm^3.

The values above are taken from paper PMC5954004, “19th European Symposium on Radiopharmacy and Radiopharmaceuticals (ESRR’18)” (EJNMMI Radiopharmacy and Chemistry, 2018).
